Columns and labels:
M4 muscarinic receptor = biological target: T1, M4 muscarinic receptor (Homo sapiens, UniProt P08173); assay: Functional mobilization of intracellular calcium (FLIPR) in M4-CHO cells; format: cell-based; conditions: M4 receptor, calcium mobilization; for Emax: read-out: M4 Efficacy
T1 construct: expressed in transfected cells; host or cells: CHO (M4-CHO)
T1 sequence (P08173 1-479): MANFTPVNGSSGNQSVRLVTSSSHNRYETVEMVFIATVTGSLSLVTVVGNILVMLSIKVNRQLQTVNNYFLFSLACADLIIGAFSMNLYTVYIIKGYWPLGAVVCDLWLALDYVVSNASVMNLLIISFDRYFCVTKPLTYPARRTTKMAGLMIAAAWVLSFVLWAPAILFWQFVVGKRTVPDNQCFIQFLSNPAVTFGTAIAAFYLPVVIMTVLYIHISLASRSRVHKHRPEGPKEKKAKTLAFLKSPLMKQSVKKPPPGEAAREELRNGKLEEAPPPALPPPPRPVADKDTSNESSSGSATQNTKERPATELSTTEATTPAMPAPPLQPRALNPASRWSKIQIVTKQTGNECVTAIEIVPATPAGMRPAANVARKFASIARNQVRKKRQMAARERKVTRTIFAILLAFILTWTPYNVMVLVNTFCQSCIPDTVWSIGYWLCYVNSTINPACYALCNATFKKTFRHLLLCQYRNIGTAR
In short: (§1)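 Two modes: direct compound addition for agonism, or 15 min compound pre-incubation (or co-application) before carbachol at EC80 for inhibition. Calcium signal from Fluo-3 AM or Calcium 3 dye in CHO cells, 1 mM probenecid, pH 7.4, read 60 sec at 488/540 nm; DMSO 0.5% final.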

M1 muscarinic receptor = biological target: T2, M1 muscarinic receptor (Homo sapiens, UniProt P11229); assay: Functional mobilization of intracellular calcium (FLIPR) in M1-CHO cells; format: cell-based; conditions: M1 receptor, calcium mobilization; for Emax: read-out: M1 Efficacy
T2 construct: expressed in transfected cells; host or cells: CHO (M1-CHO)
T2 sequence (P11229 1-460): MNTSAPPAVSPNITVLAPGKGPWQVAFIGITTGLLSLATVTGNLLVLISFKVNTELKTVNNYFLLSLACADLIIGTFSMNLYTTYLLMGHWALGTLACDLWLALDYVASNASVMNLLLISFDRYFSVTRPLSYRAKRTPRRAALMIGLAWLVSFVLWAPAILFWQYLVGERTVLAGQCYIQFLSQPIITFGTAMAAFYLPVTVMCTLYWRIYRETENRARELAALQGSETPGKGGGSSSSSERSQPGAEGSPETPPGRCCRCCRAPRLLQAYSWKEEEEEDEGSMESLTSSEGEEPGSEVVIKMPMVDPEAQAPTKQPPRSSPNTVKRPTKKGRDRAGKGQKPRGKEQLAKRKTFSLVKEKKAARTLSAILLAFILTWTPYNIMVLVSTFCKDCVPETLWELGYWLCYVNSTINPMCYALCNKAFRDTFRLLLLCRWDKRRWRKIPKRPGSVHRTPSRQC
In short: as §1

| SMILES | M4 Activity (M4 muscarinic receptor) | Emax (M4 muscarinic receptor) | M1 Activity (M1 muscarinic receptor) | Emax (M1 muscarinic receptor) |
| --- | --- | --- | --- | --- |
| CCOC(=O)N1CCC(N2CCC3(CC2)CN(C(C)=O)c2ccc(Cl)cc23)CC1 [compound 141] | xx (activity was measured to be between 0.1 μM and 1.0 μM) | > 85% | xxx (activity was measured to be less than 0.1 μM) | > 85% |
| CCOC(=O)N1CCC(N2CCC3(CC2)CN(C(=O)C(C)C)c2ccc(F)cc23)CC1 [compound 142] | x (activity was measured to be greater than 1.0 μM) | > 85% | xxx (activity was measured to be less than 0.1 μM) | 65 to 85% |
| CCOC(=O)N1CCC(N2CCC3(CC2)CN(C(=O)c2cccnc2)c2ccc(F)cc23)CC1 [compound 144] | xxx (activity was measured to be less than 0.1 μM) | > 85% | xxx (activity was measured to be less than 0.1 μM) | > 85% |
| CCOC(=O)N1CCC(N2CCC3(CC2)CN(C(=O)OC(C)C)c2ccc(F)cc23)CC1 [compound 145] | x (activity was measured to be greater than 1.0 μM) | > 85% | xxx (activity was measured to be less than 0.1 μM) | > 85% |
| CCOC(=O)N1CCC(N2CCC3(CC2)CN(C(C)=O)c2ccc(-c4ccccc4F)cc23)CC1 [compound 146] | xxx (activity was measured to be less than 0.1 μM) | > 85% | xxx (activity was measured to be less than 0.1 μM) | > 85% |
| Clc1ccc2c(c1)C1(CCN(CC3CC4C=CC3C4)CC1)CN2 (centres unmarked) [compound 147] | xx (activity was measured to be between 0.1 μM and 1.0 μM) | > 85% | xxx (activity was measured to be less than 0.1 μM) | 65 to 85% |
| CCOC(=O)N1C2CCC1CC(N1CCC3(CC1)C(=O)N(C)c1ccccc13)C2 (centres unmarked) [compound 149] | x (activity was measured to be greater than 1.0 μM) | > 85% | xxx (activity was measured to be less than 0.1 μM) | > 85% |
| CCOC(=O)N1CCC(N2CCC3(CC2)CN(C(C)=O)c2ccc(-c4ccccc4OC)cc23)CC1 [compound 150] | x (activity was measured to be greater than 1.0 μM) | > 85% | xxx (activity was measured to be less than 0.1 μM) | 65 to 85% |
| CC(=O)N1CC2(CCN(C3CCN(C(=O)OC4CCC4)CC3)CC2)c2cc(C)ccc21 [compound 151] | xxx (activity was measured to be less than 0.1 μM) | > 85% | xxx (activity was measured to be less than 0.1 μM) | > 85% |
| Fc1ccc2c(c1)C1(CCN(C3CCCCC3)CC1)CO2 [compound 152] | x (activity was measured to be greater than 1.0 μM) | > 85% | xx (activity was measured to be between 0.1 μM and 1.0 μM) | 65 to 85% |
| CCOC(=O)N1C2CCC1CC(N1CCC3(CC1)CNc1ccccc13)C2 (centres unmarked) [compound 153] | xxx (activity was measured to be less than 0.1 μM) | > 85% | xxx (activity was measured to be less than 0.1 μM) | > 85% |
| COC(=O)N1CCC(N2CCC3(CC2)CN(C(=O)N(C)C)c2ccc(F)cc23)CC1 [compound 154] | xxx (activity was measured to be less than 0.1 μM) | > 85% | xxx (activity was measured to be less than 0.1 μM) | 65 to 85% |
| Clc1ccc2c(c1)C1(CCN(C3CCCCC3)CC1)CN2 [compound 155] | x (activity was measured to be greater than 1.0 μM) | > 85% | xxx (activity was measured to be less than 0.1 μM) | > 85% |
| COC(=O)N1C2CCC1CC(N1CCC3(CC1)COc1ccc(F)cc13)C2 (centres unmarked) [compound 156] | xxx (activity was measured to be less than 0.1 μM) | > 85% | xxx (activity was measured to be less than 0.1 μM) | 65 to 85% |
